Reference: the NIST ThermoML archive (doi:10.1021/je060271a)
Numbers after ± are expanded uncertainties.

Conditions: 323.15 K, Liquid, Vibrating tube method

CCCCCCC(=O)OCC(COC(=O)CCCCCC)(COC(=O)CCCCCC)COC(=O)CCCCCC [pentaerythritol tetraheptanoate]
Conditions | mass density [kg/m3]
16867 kPa | 966.6 ± 1.2
16877 kPa | 966.8 ± 1.2
16890 kPa | 966.9 ± 1.2
16900 kPa | 966.7 ± 1.2
16913 kPa | 966.7 ± 1.2
17014 kPa | 966.8 ± 1.2
17028 kPa | 966.8 ± 1.2
17038 kPa | 966.9 ± 1.2
17049 kPa | 967 ± 1.2
17062 kPa | 966.9 ± 1.2
17072 kPa | 966.9 ± 1.2
17084 kPa | 966.9 ± 1.2
17095 kPa | 966.8 ± 1.2
17108 kPa | 966.8 ± 1.2
17119 kPa | 967 ± 1.2
17131 kPa | 966.9 ± 1.2
17142 kPa | 967 ± 1.2
17153 kPa | 966.9 ± 1.2
17164 kPa | 967 ± 1.2
17177 kPa | 967 ± 1.2
17188 kPa | 966.9 ± 1.2
17201 kPa | 966.9 ± 1.2
17212 kPa | 967 ± 1.2
17247 kPa | 967 ± 1.2
17258 kPa | 966.9 ± 1.2
17269 kPa | 967 ± 1.2
17282 kPa | 967 ± 1.2
17293 kPa | 967 ± 1.2
17307 kPa | 967.1 ± 1.2
17318 kPa | 967 ± 1.2
17389 kPa | 967 ± 1.2
17412 kPa | 967.1 ± 1.2
17426 kPa | 967 ± 1.2
17437 kPa | 967.2 ± 1.2
17451 kPa | 967.1 ± 1.2
17462 kPa | 967.1 ± 1.2
17474 kPa | 967.2 ± 1.2
17485 kPa | 967.2 ± 1.2
17499 kPa | 967.2 ± 1.2
17511 kPa | 967 ± 1.2
17536 kPa | 967.2 ± 1.2
17548 kPa | 967.2 ± 1.2
17559 kPa | 967.3 ± 1.2
17573 kPa | 967.2 ± 1.2
17584 kPa | 967.3 ± 1.2
17596 kPa | 967.2 ± 1.2
17610 kPa | 967.2 ± 1.2
17621 kPa | 967.1 ± 1.2
17633 kPa | 967.2 ± 1.2
17647 kPa | 967.2 ± 1.2
17746 kPa | 967.4 ± 1.2
17760 kPa | 967.3 ± 1.2
17772 kPa | 967.3 ± 1.2
17810 kPa | 967.3 ± 1.2
17822 kPa | 967.2 ± 1.2
17836 kPa | 967.4 ± 1.2
17848 kPa | 967.3 ± 1.2
17861 kPa | 967.3 ± 1.2
17873 kPa | 967.3 ± 1.2
17899 kPa | 967.4 ± 1.2
17962 kPa | 967.4 ± 1.2
17976 kPa | 967.5 ± 1.2
17989 kPa | 967.4 ± 1.2
18016 kPa | 967.4 ± 1.2
18029 kPa | 967.5 ± 1.2
18041 kPa | 967.5 ± 1.2
18053 kPa | 967.5 ± 1.2
18066 kPa | 967.5 ± 1.2
18080 kPa | 967.5 ± 1.2
18092 kPa | 967.4 ± 1.2
18107 kPa | 967.5 ± 1.2
18119 kPa | 967.5 ± 1.2
18132 kPa | 967.6 ± 1.2
18146 kPa | 967.5 ± 1.2
18159 kPa | 967.5 ± 1.2
18186 kPa | 967.6 ± 1.2
18524 kPa | 967.9 ± 1.2
18537 kPa | 967.8 ± 1.2
18550 kPa | 967.9 ± 1.2
18565 kPa | 967.6 ± 1.2
18579 kPa | 967.8 ± 1.2
18594 kPa | 967.7 ± 1.2
18608 kPa | 967.8 ± 1.2
18621 kPa | 967.8 ± 1.2
18634 kPa | 967.9 ± 1.2
18650 kPa | 967.8 ± 1.2
18663 kPa | 967.8 ± 1.2
18676 kPa | 967.8 ± 1.2
18692 kPa | 967.9 ± 1.2
18704 kPa | 967.9 ± 1.2
18721 kPa | 967.9 ± 1.2
18734 kPa | 967.9 ± 1.2
18747 kPa | 967.9 ± 1.2
18761 kPa | 967.9 ± 1.2
18777 kPa | 967.8 ± 1.2
18790 kPa | 968 ± 1.2
18803 kPa | 968 ± 1.2
18820 kPa | 968 ± 1.2
18833 kPa | 967.9 ± 1.2
18848 kPa | 968 ± 1.2
18862 kPa | 968 ± 1.2
18876 kPa | 968 ± 1.2
18889 kPa | 968.1 ± 1.2
18906 kPa | 968 ± 1.2
18950 kPa | 968 ± 1.2
18977 kPa | 968.1 ± 1.2
18993 kPa | 967.9 ± 1.2
19007 kPa | 968.1 ± 1.2
19021 kPa | 968.1 ± 1.2
19037 kPa | 968.1 ± 1.2
19051 kPa | 968.2 ± 1.2
19064 kPa | 968.1 ± 1.2
19081 kPa | 968 ± 1.2
19096 kPa | 968.1 ± 1.2
19124 kPa | 968 ± 1.2
19140 kPa | 968.1 ± 1.2
19154 kPa | 968.1 ± 1.2
19168 kPa | 968.1 ± 1.2
19182 kPa | 968.1 ± 1.2
19199 kPa | 968.2 ± 1.2
19213 kPa | 968.2 ± 1.2
19228 kPa | 968.1 ± 1.2
19245 kPa | 968.2 ± 1.2
19259 kPa | 968.2 ± 1.2
19273 kPa | 968.3 ± 1.2
19289 kPa | 968.3 ± 1.2
19303 kPa | 968.3 ± 1.2
19320 kPa | 968.2 ± 1.2
19334 kPa | 968.3 ± 1.2
19351 kPa | 968.3 ± 1.2
19366 kPa | 968.3 ± 1.2
19380 kPa | 968.2 ± 1.2
19394 kPa | 968.4 ± 1.2
19411 kPa | 968.4 ± 1.2
19425 kPa | 968.4 ± 1.2
19440 kPa | 968.3 ± 1.2
19457 kPa | 968.3 ± 1.2
19472 kPa | 968.4 ± 1.2
19489 kPa | 968.3 ± 1.2
19503 kPa | 968.3 ± 1.2
19564 kPa | 968.3 ± 1.2
19579 kPa | 968.3 ± 1.2
19597 kPa | 968.4 ± 1.2
19611 kPa | 968.4 ± 1.2
19629 kPa | 968.5 ± 1.2
19644 kPa | 968.5 ± 1.2
19659 kPa | 968.5 ± 1.2
19674 kPa | 968.5 ± 1.2
19688 kPa | 968.5 ± 1.2
19706 kPa | 968.5 ± 1.2
19721 kPa | 968.5 ± 1.2
19738 kPa | 968.5 ± 1.2
19754 kPa | 968.6 ± 1.2
19769 kPa | 968.5 ± 1.2
19787 kPa | 968.5 ± 1.2
19802 kPa | 968.5 ± 1.2
19816 kPa | 968.5 ± 1.2
19834 kPa | 968.5 ± 1.2
19850 kPa | 968.5 ± 1.2
19864 kPa | 968.6 ± 1.2
19882 kPa | 968.7 ± 1.2
19898 kPa | 968.5 ± 1.2
19913 kPa | 968.7 ± 1.2
19928 kPa | 968.6 ± 1.2
19947 kPa | 968.6 ± 1.2
19977 kPa | 968.5 ± 1.2
19995 kPa | 968.5 ± 1.2
20026 kPa | 968.6 ± 1.2
20044 kPa | 968.7 ± 1.2
20059 kPa | 968.7 ± 1.2
20075 kPa | 968.6 ± 1.2
20094 kPa | 968.8 ± 1.2
20109 kPa | 968.7 ± 1.2
20125 kPa | 968.8 ± 1.2
20141 kPa | 968.8 ± 1.2
20159 kPa | 968.8 ± 1.2
20175 kPa | 968.9 ± 1.2
20193 kPa | 968.8 ± 1.2
20209 kPa | 968.9 ± 1.2
20224 kPa | 968.8 ± 1.2
20240 kPa | 968.9 ± 1.2
20258 kPa | 969 ± 1.2
20274 kPa | 968.8 ± 1.2
20293 kPa | 968.9 ± 1.2
20309 kPa | 968.8 ± 1.2
20325 kPa | 968.8 ± 1.2
20344 kPa | 968.9 ± 1.2
20359 kPa | 968.9 ± 1.2
20375 kPa | 968.9 ± 1.2
20390 kPa | 968.9 ± 1.2
20410 kPa | 968.9 ± 1.2
20426 kPa | 969 ± 1.2
20444 kPa | 969 ± 1.2
20460 kPa | 969 ± 1.2
20476 kPa | 968.9 ± 1.2
20496 kPa | 969 ± 1.2
20512 kPa | 969 ± 1.2
20528 kPa | 969 ± 1.2
20544 kPa | 969 ± 1.2
20564 kPa | 969.1 ± 1.2
20580 kPa | 969 ± 1.2
20596 kPa | 969 ± 1.2
20631 kPa | 969.1 ± 1.2
20648 kPa | 969 ± 1.2
20667 kPa | 969.1 ± 1.2
20684 kPa | 969.2 ± 1.2
20700 kPa | 969.1 ± 1.2
20720 kPa | 969.2 ± 1.2
20737 kPa | 969.1 ± 1.2
20755 kPa | 969.2 ± 1.2
20771 kPa | 969.1 ± 1.2
20791 kPa | 969.2 ± 1.2
20808 kPa | 969.1 ± 1.2
20824 kPa | 969.2 ± 1.2
20841 kPa | 969.2 ± 1.2
20861 kPa | 969.3 ± 1.2
20877 kPa | 969.3 ± 1.2
20894 kPa | 969.3 ± 1.2
20914 kPa | 969.2 ± 1.2
20931 kPa | 969.3 ± 1.2
20985 kPa | 969.2 ± 1.2
21022 kPa | 969.1 ± 1.2
21039 kPa | 969.4 ± 1.2
